The target of assay [1] is T1, human GHS-R 1a (Homo sapiens, UniProt Q92847). The experiment in a line: GHS-R 1a receptor-ligand binding assay (membrane preparations from transfected LLC PK-1 cells). Details: expressed in transfected cells. The note with it: displacement of 125I-His9-ghrelin; plasma membranes of LLC PK-1 cells transiently transfected with human GHS-R 1a; mean of at least two independent experiments in triplicates. How it is done: II) GHS-R 1a Receptor-Ligand Binding Assay (Membrane Preparations from Transfected LLC PK-1 Cells)
The GHS-R 1a receptor binding/affinity studies were performed according to Guerlavais et al. (J. Med. Chem. 2003, 46: 1191-1203).
Isolated plasma membranes from LLC PK-1 cells, a renal epithelial cell line originally derived from porcine kidneys (ECACC No. 86121112) (10 μg of protein), that were transiently transfected with human GHS-R 1a cDNA (Guerlavais et al., J. Med. Chem. 2003, 46: 1191-1203), were incubated in homogenization buffer HB [50 mM Tris (pH 7.3), 5 mM MgCl2, 2.5 mM EDTA, and 30 μg/mL bacitracin (Sigma)] for 60 min at 25° C. (steady-state conditions) with […] ^125I-His^9-ghrelin (Amersham) in the presence or absence of competing compounds (compounds of the invention).
Nonspecific binding was defined using an excess (10^−6 M) of ghrelin. The binding reaction was stopped by addition of 4 mL of ice-cold HB followed by rapid filtration over Whatman GP/C filters presoaked with 0.5% polyethyleneimine to prevent excessive binding of radioligand to the filters. Filters were rinsed three times with 3 mL of icecold wash buffer [50 mM Tris (pH 7.3), 10 mM MgCl2, 2.5 mM EDTA, and 0.015% (w/v) X-100 Triton], and the radioactivity bound to membranes was measured in a gammacounter (Kontron Analytical Gamma Matic, Automatic gamma counting system).
The concentration of test compounds required to inhibit radiolabelled ghrelin binding by 50% (IC50) was determined by fitting competitive binding curves using non-linear regression (PRISM 3.0, Graph Pad San Diego, USA).
In the following table 2 results obtained for selected compounds of the invention are presented in comparison to an example of the prior art. IC50 values given are the mean of at least two independent experiments performed in triplicates.
(In general: Displacement assays read how much labelled ligand stays bound in the presence of the test substance.)

Assay [2] concerns the target T1, human GHS-R 1a. The experiment in a line: In vitro intracellular calcium release assay using human GHS-R 1a transfected CHO cells. Format: cell-based. Details: expressed in transfected cells; host or cells: CHO-K1 Chinese hamster ovary cells (ATCC No. CCL-61), transient transfection by electroporation. The settings on record: for pEC50: agonists, dose-response curve of intracellular calcium release; for activation at 1 µM: intracellular calcium release, compound at 10^-6 M, relative to basal level (0%) and 1 μM ghrelin (100%). Here is the method:
The ability to properly activate the receptors is assessed for any compound of the invention by comparing the degree of activation (increase of intracellular calcium) of GHS-R 1a by the compound to be tested (at 10^−6 M concentration) to the degree of activation (increase of intracellular calcium) of GHS-R 1a by 10^−6 M ghrelin (100%) and to the basal level (0%). Such assessment can be readily performed by the skilled artisan due to his expert knowledge. The output is a percentage value for each compound to be tested. […]
III) In Vitro Intracellular Calcium Release Assay Using Human GHS-R 1a Transfected CHO Cells
The potential of the compounds of the invention to modulate GHS receptor activity was assessed by an in vitro intracellular Calcium release assay employing CHO cells that were transfected with human GHS-R 1a.
Release of intracellular calcium or inhibition thereof was measured using the fluorescent calcium indicator assay (FLIPR) and Fluo-4 AM.
CHO cells (CHO-KI Chinese Hamster Ovary cell line, ATCC No. CCL-61) were transiently transfected with human GHS-R 1a cDNA by electroporation and plated into 96-well black bottom plates (Corning 3603) (80,000 cells/well). Transient transfections were performed using the Easyject Optima Electroporator (Equibio), according to the manufacturer's instructions.
Transfected cells were grown in Dulbecco's modified Eagle's medium without phenol red, supplemented with 10% (v/v) non-essential amino acids, […] glutamine and streptomycin-penicillin (250 μg/ml-250 u/ml) (all purchased from Cambrex) at 37° C., 5% CO2 in a humidified atmosphere for 24 hours.
After incubation, transfected cells were washed with 150 μl Buffer A [Hanks' balanced salt solution (Sigma H-6648), 0.5% (v/v) BSA (Sigma A-7906), 20 mM CaCl2, 2.5 mM probenecid (pH 7.4, dissolved in 1 M NaOH) (Sigma P-8761)] and were then loaded with fluorescent calcium indicator Fluo-4 AM (10^−6 M) (Interchim UP72972) prepared in Buffer A, additionally containing 0.06% pluronic acid (Molecular probes P-6867) (a […] detergent which facilitates Fluo-4AM ester loading). (Loading: 100 μl per well of Buffer A containing 120 μl/ml Pluronic Acid and 1 μM Fluo-4AM was added to the cells).
After loading with Fluo-4 AM, transfected cells were incubated for 1 hour in the dark at 37° C.
Compounds to be tested were dissolved in Buffer A in triplicates at a concentration of 10^−6 M and distributed into another 96-well plate (Fisher Labosi A1210500).
Following incubation, excess Fluo-4AM was removed, 100 μl of Buffer A was added to each well at room temperature and immediately removed by aspiration. This was then repeated, before adding 50 μl Buffer A to each well.
Transfected cells were further incubated room temperature for 30 min to allow complete de-esterification of intracellular Fluo-4AM esters.
Subsequently, both plates, the black-bottom plate containing transfected cells and the microtiter plate containing the compounds to be tested, were then placed into a temperature-regulated (25° C.) FlexStation machine (benchtop scanning fluorometer Flex Station II, Molecular Devices, Sunnyvale, Calif., USA) for fluorescence output measurements.
Basal fluorescence output from the transfected cells was measured for 15 sec and then 50 μl of the compounds to be tested were automatically distributed into the wells containing the transfected cells. The fluorescence output was then recorded for a further 45 sec.
Excitation and emission wavelengths were 485 nm and 525 nm, respectively. Basal fluorescence intensity of Fluo-4AM-loaded transfected cells without compounds to be tested varied between 800-1200 arbitrary units, whereas maximal fluorescence output of dye-loaded transfected cells upon incubation with the compounds to be tested varied between 5000-7000 arbitrary units and was equivalent to that achieved by stimulation of dye-loaded transfected cells with 10^−6 M ghrelin. […]
A general note: Calcium assays in cells follow changes in intracellular calcium, usually with a dye or a luminescent sensor.

pEC50, pIC50: −log10 of the molar value.

T1 sequence (Q92847 whole entry): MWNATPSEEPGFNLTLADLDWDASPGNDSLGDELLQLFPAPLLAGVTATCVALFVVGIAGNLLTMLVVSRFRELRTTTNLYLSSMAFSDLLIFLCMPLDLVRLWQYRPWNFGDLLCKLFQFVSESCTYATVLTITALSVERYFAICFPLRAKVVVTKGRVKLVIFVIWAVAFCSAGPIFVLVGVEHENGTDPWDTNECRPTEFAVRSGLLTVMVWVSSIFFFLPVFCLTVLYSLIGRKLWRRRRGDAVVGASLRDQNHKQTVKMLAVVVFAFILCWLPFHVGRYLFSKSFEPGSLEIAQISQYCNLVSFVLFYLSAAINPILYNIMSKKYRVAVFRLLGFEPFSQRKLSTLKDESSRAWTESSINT

With `O=C(N[C@H](Cc1c[nH]c2ccccc12)c1nnc(CCCc2c[nH]c3ccccc23)n1Cc1ccccc1)C1CCNCC1` [Compound 22, N-((R)-1-(5-(3-(1H-indol-3-yl)propyl)-4-benzyl-4H-1,2,4-triazol-3-yl)-2-(1H-indol-3-yl)ethyl)piperidine-4-carboxamide], the pIC50 (as a rule, −log10 of the IC50, conventionally taken in molar units) on human GHS-R 1a [1] was 7.40. Besides, at human GHS-R 1a [2], the pEC50 (commonly the EC50 on a negative log10 scale, so that one unit is a factor of ten) was 8.80 and the activation at 1 µM was 150%.
On the same counts, the results for `O=C(N[C@H](Cc1c[nH]c2ccccc12)c1nnc(CCc2ccccc2)n1Cc1cccc2ccccc12)C1CCNCC1` [Compound 15, N-((R)-2-(1H-indol-3-yl)-1-(4-((naphthalen-1-yl)methyl)-5-phenethyl-4H-1,2,4-triazol-3-yl)ethyl)piperidine-4-carboxamide] are 7.77, 8.70 and 120%.
At human GHS-R 1a [1], `COc1ccc(Cn2c(CCc3ccccc3)nnc2[C@@H](Cc2c[nH]c3ccccc23)NC(=O)c2cccc(CN)c2)c(OC)c1` [Compound 6, N-((R)-1-(4-(2,4-dimethoxybenzyl)-5-phenethyl-4H-1,2,4-triazol-3-yl)-2-(1H-indol-3-yl)ethyl)-3-(amino-methyl)benzamide] showed a negative logarithm of the IC50 (pIC50) of 6.69. Also, at human GHS-R 1a [2], the activation at 1 µM worked out at 4%.
In turn, `O=C(N[C@H](Cc1c[nH]c2ccccc12)c1nnc(CCc2c[nH]c3ccccc23)n1Cc1cccc2ccccc12)c1ccccn1` [Compound 18, N-((R)-1-(5-(2-(1H-indol-3-yl)ethyl)-4-((naphthalen-1-yl)methyl)-4H-1,2,4-triazol-3-yl)-2-(1H-indol-3-yl)ethyl)picolinamide] had a pIC50 on human GHS-R 1a [1] of 8.28. Also, the activation at 1 µM on human GHS-R 1a [2] came out at 1%.
`COc1ccc(Cn2c(CCc3cc4ccccc4[nH]3)nnc2[C@@H](Cc2c[nH]c3ccccc23)NC(=O)C2(N)CCNCC2)cc1` [Compound 3, N-((R)-1-(5-(2-(1H-indol-2-yl)ethyl)-4-(4-methoxybenzyl)-4H-1,2,4-triazol-3-yl)-2-(1H-indol-3-yl)ethyl)-4-aminopiperidine-4-carboxamide]: on human GHS-R 1a [1], the pIC50 was 7.80. Also, on human GHS-R 1a [2], the pEC50 is 8.36 and the activation at 1 µM was determined as 106%.
As for `O=C(N[C@H](Cc1c[nH]c2ccccc12)c1nnc(Cc2ccccc2)n1Cc1ccc(Cl)c(Cl)c1)[C@@H]1CCCN1` [Compound 35, (2S)-N-((R)-1-(4-(3,4-dichlorobenzyl)-5-benzyl-4H-1,2,4-triazol-3-yl)-2-(1H-indol-3-yl)ethyl)pyrrolidine-2-carboxamide], on human GHS-R 1a [2], the negative-log EC50 (pEC50) was 7.77 and the activation at 1 µM amounted to 60%.
On human GHS-R 1a [1], `O=C(N[C@H](Cc1c[nH]c2ccccc12)c1nnc(CCCc2c[nH]c3ccccc23)n1Cc1cccc2ccccc12)C1CCCN1` (stereo partly drawn) [Compound 44, N-((R)-1-(5-(3-(1H-indol-3-yl)propyl)-4-((naphthalen-1-yl)methyl)-4H-1,2,4-triazol-3-yl)-2-(1H-indol-3-yl)ethyl)pyrrolidine-2-carboxamide] gave a pIC50 of 6.22. Also, on human GHS-R 1a [2], the negative-log EC50 (pEC50) was 7.92 and the activation at 1 µM came out at 100%.
Molecule `O=C(Cc1ccccn1)N[C@H](Cc1c[nH]c2ccccc12)c1nnc(CCc2c[nH]c3ccccc23)n1Cc1cccc2ccccc12` [Compound 30, N-((R)-1-(5-(2-(1H-indol-3-yl)ethyl)-4-((naphthalen-1-yl)methyl)-4H-1,2,4-triazol-3-yl)-2-(1H-indol-3-yl)ethyl)-2-(pyridin-2-yl)acetamide] had a pIC50 at human GHS-R 1a [1] of 6.90. Moreover, the activation at 1 µM at human GHS-R 1a [2] stood at 0%.
As to `COc1ccc(Cn2c(CCc3ccccc3)nnc2[C@@H](Cc2c[nH]c3ccccc23)NC(=O)[C@H]2CNCCN2)cc1` [Compound 2, (2R)-N-((R)-1-(4-(4-methoxybenzyl)-5-phenethyl-4H-1,2,4-triazol-3-yl)-2-(1H-indol-3-yl)ethyl)piperazine-2-carboxamide], the pIC50 at human GHS-R 1a [1] is 6.84. In addition, on human GHS-R 1a [2], the pEC50 is 7.77 and the activation at 1 µM was found to be 40%.
Molecule `O=C(N[C@H](Cc1c[nH]c2ccccc12)c1nnc(Cc2ccccc2)n1Cc1ccc(Cl)c(Cl)c1)C1CCNCC1` [Compound 33, N-((R)-1-(4-(3,4-dichlorobenzyl)-5-benzyl-4H-1,2,4-triazol-3-yl)-2-(1H-indol-3-yl)ethyl)piperidine-4-carboxamide] gave a negative logarithm of the IC50 (pIC50) at human GHS-R 1a [1] of 8.30. Moreover, on human GHS-R 1a [2], the pEC50 is 8.82 and the activation at 1 µM turned out to be 120%.
`NC1(C(=O)N[C@H](Cc2c[nH]c3ccccc23)c2nnc(CCCc3c[nH]c4ccccc34)n2Cc2ccccc2)CCNCC1` [Compound 43, N-((R)-1-(5-(3-(1H-indol-3-yl)propyl)-4-benzyl-4H-1,2,4-triazol-3-yl)-2-(1H-indol-3-yl)ethyl)-4-aminopiperidine-4-carboxamide] gave a pIC50 at human GHS-R 1a [1] of 7.46. Also, the pEC50 on human GHS-R 1a [2] was 8.19.
On to `NC1(C(=O)N[C@H](Cc2c[nH]c3ccccc23)c2nnc(CCc3c[nH]c4ccccc34)n2Cc2cccc3ccccc23)CCNCC1` [Compound 48, N-((R)-1-(5-(2-(1H-indol-3-yl)ethyl)-4-((naphthalen-1-yl)methyl)-4H-1,2,4-triazol-3-yl)-2-(1H-indol-3-yl)ethyl)-4-aminopiperidine-4-carboxamide], for which the negative logarithm of the IC50 (pIC50) at human GHS-R 1a [1] is 7.92. Also, at human GHS-R 1a [2], the pEC50 is 8.41 and the activation at 1 µM amounted to 100%.
With `CC(C)(N)C(=O)N[C@H](Cc1c[nH]c2ccccc12)c1nnc(CCc2ccccc2)n1Cc1ccc(-c2ccccc2)cc1` [Compound 73, 2-amino-N-((R)-1-(4-(4-phenylbenzyl)-5-phenethyl-4H-1,2,4-triazol-3-yl)-2-(1H-indol-3-yl)ethyl)-2-methylpropanamide], the negative-log IC50 (pIC50) at human GHS-R 1a [1] was 6.82.
In the case of `COc1ccc(Cn2c(CCc3ccccc3)nnc2[C@@H](Cc2cccc3ccccc23)NC(=O)C(C)(C)N)cc1` [Compound 77, N-((R)-1-(4-(4-methoxybenzyl)-5-phenethyl-4H-1,2,4-triazol-3-yl)-2-(naphthalen-1-yl)ethyl)-2-amino-2-methylpropanamide], the negative-log IC50 (pIC50) on human GHS-R 1a [1] was 7.91.
